Drawing on ChEMBL document CHEMBL1201862, “PubChem BioAssay data set” (2004), this text covers AC50 and IC50 for three compounds.

“And” between values parts separate entries of the source, which are not always exact repeats. Identical values can stand only once. The source made the active and inactive calls. A value given as a limit tells only on which side of the number the result lay.

In experiment [1] the target is T1, CAAX prenyl protease 2 (Saccharomyces cerevisiae S288c, UniProt Q03530).
T1 sequence (Q03530 whole entry): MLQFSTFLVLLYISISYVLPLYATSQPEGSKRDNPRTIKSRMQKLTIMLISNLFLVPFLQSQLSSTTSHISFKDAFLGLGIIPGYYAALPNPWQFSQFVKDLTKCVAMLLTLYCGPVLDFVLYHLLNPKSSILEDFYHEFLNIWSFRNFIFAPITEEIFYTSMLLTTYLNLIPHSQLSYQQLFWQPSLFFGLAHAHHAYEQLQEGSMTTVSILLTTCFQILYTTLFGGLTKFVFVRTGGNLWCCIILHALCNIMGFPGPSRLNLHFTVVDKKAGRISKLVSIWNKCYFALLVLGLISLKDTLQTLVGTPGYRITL
Description: yeast Rce1 CaaX protease inhibitors, dose response, biochemical, plate reader, dry powder retest (AID 588851).

For experiment [2], the target named is Disintegrin and metalloproteinase domain-containing protein 17 (Homo sapiens, UniProt P78536). Description: ADAM17 protease inhibitors, dose response, counter-screen for ADAM10 exosite inhibitor project, biochemical, quenched FRET substrate (AID 743253).
Chain of Disintegrin and metalloproteinase domain-containing protein 17 (P78536 whole entry, the tested form may be a part): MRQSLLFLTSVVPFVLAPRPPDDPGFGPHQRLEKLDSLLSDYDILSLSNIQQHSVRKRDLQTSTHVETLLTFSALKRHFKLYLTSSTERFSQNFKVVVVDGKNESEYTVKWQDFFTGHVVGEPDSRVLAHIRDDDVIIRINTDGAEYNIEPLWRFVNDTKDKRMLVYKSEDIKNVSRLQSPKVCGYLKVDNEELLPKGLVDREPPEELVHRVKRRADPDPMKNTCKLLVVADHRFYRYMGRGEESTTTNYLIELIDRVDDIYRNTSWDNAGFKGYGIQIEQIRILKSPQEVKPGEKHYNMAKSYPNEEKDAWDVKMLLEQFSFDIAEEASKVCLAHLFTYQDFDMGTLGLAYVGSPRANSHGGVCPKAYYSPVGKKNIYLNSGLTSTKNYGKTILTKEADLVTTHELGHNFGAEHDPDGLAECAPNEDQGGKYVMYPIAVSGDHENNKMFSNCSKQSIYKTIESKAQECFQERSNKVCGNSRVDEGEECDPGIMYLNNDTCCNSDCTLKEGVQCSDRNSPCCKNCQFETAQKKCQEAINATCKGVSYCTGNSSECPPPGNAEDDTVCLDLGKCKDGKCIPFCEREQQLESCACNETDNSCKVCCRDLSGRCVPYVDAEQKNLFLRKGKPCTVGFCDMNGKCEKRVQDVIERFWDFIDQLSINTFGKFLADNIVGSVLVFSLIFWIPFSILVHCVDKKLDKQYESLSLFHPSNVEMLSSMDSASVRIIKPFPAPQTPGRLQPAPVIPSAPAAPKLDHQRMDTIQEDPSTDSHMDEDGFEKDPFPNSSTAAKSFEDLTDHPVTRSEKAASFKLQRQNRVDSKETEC
Experiment [3] is described as follows: ADAM10 inhibitors, peptide cleavage, dose response, biochemical, QFRET (AID 743254).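 Note: ADAM10 enzyme with the DM2 quenched FRET peptide as substrate; EDANS fluorescence gain as the protease cuts the substrate; inhibitor potency against ADAM10 proteolytic activity.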
Experiment [4] concerns the target T1, CAAX prenyl protease 2. The experiment is classed as biochemical.
The nature of experiment [5]: CellTiter-Glo luminescent dose response of DLD-1 viability loss (AID 1117352). The experiment is classed as functional. A general note: ATP-based viability assays read luminescence as a measure of living cells.
A short description of experiment [6]: Luminescence Cell-Based Dose Retest to Confirm Inhibitors of Cancer Stem Cells. [Related pubchem assays (depositor defined):AID2717, AID2721]. The experiment is classed as functional. As to conditions: Homo sapiens.
In the next experiment the target is T2, Exodeoxyribonuclease V (Escherichia coli (strain K12), UniProt P04993+P07648+P08394).
T2 sequence (P04993 whole entry): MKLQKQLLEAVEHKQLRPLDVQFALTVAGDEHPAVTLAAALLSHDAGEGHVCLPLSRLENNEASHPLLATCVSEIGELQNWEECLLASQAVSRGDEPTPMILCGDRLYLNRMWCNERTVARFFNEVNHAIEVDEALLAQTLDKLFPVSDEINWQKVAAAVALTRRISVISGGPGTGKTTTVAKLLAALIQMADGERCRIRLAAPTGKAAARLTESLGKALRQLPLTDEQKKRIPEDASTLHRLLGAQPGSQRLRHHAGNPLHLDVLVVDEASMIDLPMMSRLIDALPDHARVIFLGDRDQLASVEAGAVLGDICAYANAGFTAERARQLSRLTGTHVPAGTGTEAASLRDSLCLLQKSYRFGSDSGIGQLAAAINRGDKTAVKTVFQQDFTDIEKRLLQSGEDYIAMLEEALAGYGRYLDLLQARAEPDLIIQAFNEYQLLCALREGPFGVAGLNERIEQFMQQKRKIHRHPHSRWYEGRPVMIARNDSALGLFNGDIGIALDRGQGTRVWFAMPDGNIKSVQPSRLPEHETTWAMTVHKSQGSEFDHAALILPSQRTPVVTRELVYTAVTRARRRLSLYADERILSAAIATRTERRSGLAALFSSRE
T2 sequence (P07648 whole entry): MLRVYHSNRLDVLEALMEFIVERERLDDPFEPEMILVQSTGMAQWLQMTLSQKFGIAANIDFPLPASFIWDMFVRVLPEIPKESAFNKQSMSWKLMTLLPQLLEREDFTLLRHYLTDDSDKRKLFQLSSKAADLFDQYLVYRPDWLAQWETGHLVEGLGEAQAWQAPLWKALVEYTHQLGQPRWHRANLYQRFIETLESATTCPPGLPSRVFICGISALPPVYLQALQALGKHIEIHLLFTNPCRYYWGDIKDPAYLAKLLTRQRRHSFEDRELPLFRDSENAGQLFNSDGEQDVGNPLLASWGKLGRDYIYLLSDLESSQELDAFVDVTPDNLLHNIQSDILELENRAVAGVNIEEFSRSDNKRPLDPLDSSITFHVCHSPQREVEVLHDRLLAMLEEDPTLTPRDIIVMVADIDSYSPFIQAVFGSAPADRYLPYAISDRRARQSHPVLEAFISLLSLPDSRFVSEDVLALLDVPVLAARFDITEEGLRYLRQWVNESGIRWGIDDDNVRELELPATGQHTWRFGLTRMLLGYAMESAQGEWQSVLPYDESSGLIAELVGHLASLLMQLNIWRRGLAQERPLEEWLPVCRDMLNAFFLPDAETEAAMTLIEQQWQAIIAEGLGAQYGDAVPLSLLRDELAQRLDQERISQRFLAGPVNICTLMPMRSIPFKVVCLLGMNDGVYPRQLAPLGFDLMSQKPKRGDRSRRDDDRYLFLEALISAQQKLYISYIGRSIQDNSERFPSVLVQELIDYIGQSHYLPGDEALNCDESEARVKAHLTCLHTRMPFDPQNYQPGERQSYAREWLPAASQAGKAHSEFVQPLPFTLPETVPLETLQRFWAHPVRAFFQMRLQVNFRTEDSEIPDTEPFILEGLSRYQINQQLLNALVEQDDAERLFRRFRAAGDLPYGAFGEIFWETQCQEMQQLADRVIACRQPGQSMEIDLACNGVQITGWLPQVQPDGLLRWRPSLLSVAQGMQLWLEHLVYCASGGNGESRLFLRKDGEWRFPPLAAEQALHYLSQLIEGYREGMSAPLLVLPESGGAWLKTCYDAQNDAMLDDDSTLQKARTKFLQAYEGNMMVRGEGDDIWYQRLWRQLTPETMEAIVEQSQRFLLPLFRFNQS
T2 sequence (P08394 whole entry): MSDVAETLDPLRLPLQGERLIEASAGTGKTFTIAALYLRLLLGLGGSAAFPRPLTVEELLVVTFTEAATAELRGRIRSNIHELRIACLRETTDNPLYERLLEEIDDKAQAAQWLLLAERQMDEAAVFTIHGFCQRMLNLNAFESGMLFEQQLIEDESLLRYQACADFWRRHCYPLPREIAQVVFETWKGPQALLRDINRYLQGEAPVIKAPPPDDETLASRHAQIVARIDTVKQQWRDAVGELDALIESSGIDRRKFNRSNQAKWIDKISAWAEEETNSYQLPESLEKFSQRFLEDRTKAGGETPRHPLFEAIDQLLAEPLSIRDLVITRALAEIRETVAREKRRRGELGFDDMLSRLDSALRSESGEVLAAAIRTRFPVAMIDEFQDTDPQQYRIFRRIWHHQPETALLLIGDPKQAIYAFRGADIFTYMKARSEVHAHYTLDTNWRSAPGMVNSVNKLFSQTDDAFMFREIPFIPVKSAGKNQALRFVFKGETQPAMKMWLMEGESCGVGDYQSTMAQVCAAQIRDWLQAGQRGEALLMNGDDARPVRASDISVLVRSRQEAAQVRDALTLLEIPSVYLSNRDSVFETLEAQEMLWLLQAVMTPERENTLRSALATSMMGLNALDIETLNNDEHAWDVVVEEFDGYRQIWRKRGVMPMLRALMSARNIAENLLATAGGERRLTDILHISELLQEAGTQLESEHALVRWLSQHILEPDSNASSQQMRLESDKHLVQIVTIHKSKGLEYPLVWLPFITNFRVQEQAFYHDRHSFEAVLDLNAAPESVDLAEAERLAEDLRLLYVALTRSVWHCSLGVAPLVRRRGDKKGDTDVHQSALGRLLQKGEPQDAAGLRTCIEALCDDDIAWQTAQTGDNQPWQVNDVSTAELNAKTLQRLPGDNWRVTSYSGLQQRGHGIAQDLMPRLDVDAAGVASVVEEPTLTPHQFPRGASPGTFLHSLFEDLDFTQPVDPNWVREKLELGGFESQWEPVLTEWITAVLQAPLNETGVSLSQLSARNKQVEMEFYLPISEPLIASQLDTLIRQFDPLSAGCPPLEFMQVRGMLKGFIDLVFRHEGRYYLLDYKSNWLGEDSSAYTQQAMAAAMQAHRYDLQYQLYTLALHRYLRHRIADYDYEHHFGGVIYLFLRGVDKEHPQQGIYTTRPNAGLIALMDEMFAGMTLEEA
Description: E. coli RecBCD inhibitors, dose response, counter-screen for AddAB inhibitor project, absorbance, V66 E. coli, mutant T4 phage (AID 492957). The experiment is classed as functional, cell-based, Escherichia coli str. K-12 substr. MG1655.

Experiment [7] is described as follows: SNU-C1 cell viability reduction, dose response, CellTiter-Glo luminescence (AID 1117323). The experiment is classed as functional, cell-based.
Experiment [8] can be described thus: Concentration-dependent survival of SW480 colon cancer line, luminescence detection with CellTiter-Glo, half-maximal inhibitory concentration (AID 1117338). The experiment is classed as functional.
For a further experiment, the system named is HEK293. Description: inhibitors of LMP1-driven NF-kB reporter, dose response, cell-based, HEK293, luciferase, cherry-pick (AID 588343). The experiment is classed as functional. Particulars: Homo sapiens.
A short description of experiment [9]: cytotoxicity toward Colo320 cells – cell-based, CellTiter-Glo luminescence, IC50, dose response (AID 1117334). The experiment is classed as functional. As to conditions: COLO 320.
The nature of experiment [10]: cytotoxicity toward HT-29 cells – cell-based, CellTiter-Glo luminescence, IC50, dose response (AID 1117330). The experiment is classed as functional.
In experiment [11] the target is Latent membrane protein 1 (Human herpesvirus 4 (strain B95-8), UniProt P03230). Description: TES1-eGFP NF-kB reporter inhibition versus Tet-On dsRED, dose response, selectivity assay for LMP1 NF-kB inhibitor project, imaging, HEK293T, dual-color eGFP/dsRED, cherry-picks (AID 588398). The experiment is classed as functional, cell-based.
Chain of Latent membrane protein 1 (P03230 whole entry): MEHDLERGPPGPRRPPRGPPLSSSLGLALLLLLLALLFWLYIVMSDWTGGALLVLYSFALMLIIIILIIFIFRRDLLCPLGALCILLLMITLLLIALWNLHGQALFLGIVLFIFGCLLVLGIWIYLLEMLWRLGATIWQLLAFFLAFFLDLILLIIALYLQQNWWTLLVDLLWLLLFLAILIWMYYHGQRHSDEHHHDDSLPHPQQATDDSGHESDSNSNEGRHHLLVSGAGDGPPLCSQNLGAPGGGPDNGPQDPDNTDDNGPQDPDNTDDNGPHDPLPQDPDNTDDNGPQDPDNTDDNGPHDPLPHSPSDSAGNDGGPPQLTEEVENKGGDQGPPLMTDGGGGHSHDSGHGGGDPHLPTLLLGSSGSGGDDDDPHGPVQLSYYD
Experiment [12] can be described thus: Luminescence-based dose response cell-based high throughput screening assay for cytotoxic compounds using the IEC-6 intestinal epithelial cell line. [Related pubchem assays: 1858 (Summary AID.), 1825 (Counterscreen.), 1907 (Confirmation screen.)]. The experiment is classed as functional.
Experiment [13] is described as follows: cytotoxicity in HEK-293T cells, dose response, cytotoxicity control for BCR NF-kB inhibitor project, luminescence, B-cell screen hits (AID 489021).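 Note: HEK-293T cells carrying an NF-kB luciferase reporter; cells exposed to compound for about 14 hours before viability readout.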 The experiment is classed as functional, cell-based.
The subject of experiment [14] is INS1. Description: inhibitors of cytokine-induced nitrite release, dose response, cell-based, Griess absorbance, INS-1E, dry powder, set 2 (AID 488868). The experiment is classed as functional. As to conditions: Rattus norvegicus. (In general: Nitrite, measured by Griess reagent, commonly stands in for NO production.)
For experiment [15], the system named is INS1. Description: inhibitors of cytokine-induced nitrite release, dose response, cell-based, Griess absorbance, INS-1E, dry powder (AID 488866). The experiment is classed as functional. As to conditions: Rattus norvegicus.
Experiment [16] in a line: inhibitors of cytokine-induced nitrite release, dose response, cell-based, Griess absorbance, INS-1E, dry powder, set 3 (AID 488870). The experiment is classed as functional. Particulars: Rattus norvegicus.
Experiment [17] concerns INS1. Description: caspase-3/7 inhibition in cytokine-treated INS-1E, dose response, beta-cell apoptosis inhibitor project, cell-based, caspase luminescence, dry powder (AID 488848). Particulars: Rattus norvegicus. The experiment is classed as functional.
Experiment [18] concerns INS1. Description: protection of INS-1E cells from cytokine death, dose response, ATP luminescence, dry powder (AID 488844). The experiment is classed as functional, cell-based. Particulars: Rattus norvegicus.
Experiment [19] relates to INS1. Description: protection from cytokine-induced mitochondrial depolarization, dose response, cell-based, INS-1E, JC-1 fluorescence ratio, dry powder (AID 488931). The experiment is classed as functional. Particulars: Rattus norvegicus.

On to `CC(C)c1c(C(=O)N/N=C/c2cccc3ccccc23)nnn1-c1nonc1N`, for which the concentration at half-maximal activity (AC50) on CAAX prenyl protease 2 [1] is 3.25 µM (active); at CAAX prenyl protease 2 [4] it was 0.117 µM (active). Further, the IC50 in [2] and in [3] was > 69.5 µM (inactive) throughout.
`O=c1[nH]c(=O)n([C@H]2C[C@H](O)[C@@H](CO)O2)cc1C(F)(F)F` [TRIFLURIDINE]: the IC50 in [5] was > 20 µM (inactive); on Exodeoxyribonuclease V, > 118 µM (inactive) and > 119 µM (inactive); in [7], > 20 µM (inactive); in [8] it was > 20 µM (inactive); in experiment [9], > 20 µM (inactive); in experiment [10] it was > 20 µM (inactive). Moreover, the half-maximal inhibitory concentration (IC50) in experiment [12] was 1.75 µM (active); in experiment [13], > 80 µM (inactive). Also, the concentration at half-maximal activity (AC50) in experiment [6] is 1.66 µM (active); with HEK293, 3.28 µM (active); in experiment [11], 1.13 µM (active).
As to `COc1ccc(S(=O)(=O)N(C)C[C@@H]2Oc3c(NC(=O)Nc4cccc5ccccc45)cccc3C(=O)N([C@@H](C)CO)C[C@H]2C)cc1C`, the AC50 is 25.1 µM (active) with INS1 [14]; 45.2 µM (active) in the experiment on INS1 [15]; 34.5 µM (active) in experiment [16]; 0.414 µM (active) in the experiment with INS1 [17]; 0.436 µM (active) in the experiment with INS1 [18]; 4.91 µM (active) in the experiment with INS1 [19].

For orientation: AC50 means the midpoint of the concentration-response curve, whichever way the signal moves. What is called IC50 is the concentration that inhibits the measured activity by half.
